Source: paper PMC6644896 (ACS Omega, 2018)

What was measured:
[1] = molecular target: T1, human DNA topoisomerase I (Homo sapiens, UniProt P11387); test: DNA relaxation assay, agarose gel; format: biochemical
T1 sequence (P11387 2-765): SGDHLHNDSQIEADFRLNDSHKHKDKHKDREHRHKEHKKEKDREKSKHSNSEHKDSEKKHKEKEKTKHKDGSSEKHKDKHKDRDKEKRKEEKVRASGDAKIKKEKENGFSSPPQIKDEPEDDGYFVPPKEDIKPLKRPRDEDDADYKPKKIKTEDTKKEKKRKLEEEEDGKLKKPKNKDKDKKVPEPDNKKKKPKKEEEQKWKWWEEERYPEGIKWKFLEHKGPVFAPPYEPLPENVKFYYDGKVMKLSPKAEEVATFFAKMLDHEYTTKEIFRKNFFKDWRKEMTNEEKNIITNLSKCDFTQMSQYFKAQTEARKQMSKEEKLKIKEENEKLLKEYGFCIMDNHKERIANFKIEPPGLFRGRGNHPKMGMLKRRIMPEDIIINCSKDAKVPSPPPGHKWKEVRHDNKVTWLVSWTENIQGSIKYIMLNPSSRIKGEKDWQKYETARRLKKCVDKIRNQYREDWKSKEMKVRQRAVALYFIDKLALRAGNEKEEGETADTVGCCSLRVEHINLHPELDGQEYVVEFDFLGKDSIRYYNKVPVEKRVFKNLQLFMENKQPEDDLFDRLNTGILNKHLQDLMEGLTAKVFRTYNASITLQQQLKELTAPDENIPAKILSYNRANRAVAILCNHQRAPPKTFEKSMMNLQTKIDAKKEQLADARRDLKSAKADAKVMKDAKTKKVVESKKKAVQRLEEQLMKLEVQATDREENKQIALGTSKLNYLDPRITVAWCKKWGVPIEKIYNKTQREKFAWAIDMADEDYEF

[2] = molecular target: human DNA topoisomerase II alpha (Homo sapiens, UniProt P11388); test: DNA relaxation assay, agarose gel; format: biochemical
Chain of human DNA topoisomerase II alpha (P11388 whole entry): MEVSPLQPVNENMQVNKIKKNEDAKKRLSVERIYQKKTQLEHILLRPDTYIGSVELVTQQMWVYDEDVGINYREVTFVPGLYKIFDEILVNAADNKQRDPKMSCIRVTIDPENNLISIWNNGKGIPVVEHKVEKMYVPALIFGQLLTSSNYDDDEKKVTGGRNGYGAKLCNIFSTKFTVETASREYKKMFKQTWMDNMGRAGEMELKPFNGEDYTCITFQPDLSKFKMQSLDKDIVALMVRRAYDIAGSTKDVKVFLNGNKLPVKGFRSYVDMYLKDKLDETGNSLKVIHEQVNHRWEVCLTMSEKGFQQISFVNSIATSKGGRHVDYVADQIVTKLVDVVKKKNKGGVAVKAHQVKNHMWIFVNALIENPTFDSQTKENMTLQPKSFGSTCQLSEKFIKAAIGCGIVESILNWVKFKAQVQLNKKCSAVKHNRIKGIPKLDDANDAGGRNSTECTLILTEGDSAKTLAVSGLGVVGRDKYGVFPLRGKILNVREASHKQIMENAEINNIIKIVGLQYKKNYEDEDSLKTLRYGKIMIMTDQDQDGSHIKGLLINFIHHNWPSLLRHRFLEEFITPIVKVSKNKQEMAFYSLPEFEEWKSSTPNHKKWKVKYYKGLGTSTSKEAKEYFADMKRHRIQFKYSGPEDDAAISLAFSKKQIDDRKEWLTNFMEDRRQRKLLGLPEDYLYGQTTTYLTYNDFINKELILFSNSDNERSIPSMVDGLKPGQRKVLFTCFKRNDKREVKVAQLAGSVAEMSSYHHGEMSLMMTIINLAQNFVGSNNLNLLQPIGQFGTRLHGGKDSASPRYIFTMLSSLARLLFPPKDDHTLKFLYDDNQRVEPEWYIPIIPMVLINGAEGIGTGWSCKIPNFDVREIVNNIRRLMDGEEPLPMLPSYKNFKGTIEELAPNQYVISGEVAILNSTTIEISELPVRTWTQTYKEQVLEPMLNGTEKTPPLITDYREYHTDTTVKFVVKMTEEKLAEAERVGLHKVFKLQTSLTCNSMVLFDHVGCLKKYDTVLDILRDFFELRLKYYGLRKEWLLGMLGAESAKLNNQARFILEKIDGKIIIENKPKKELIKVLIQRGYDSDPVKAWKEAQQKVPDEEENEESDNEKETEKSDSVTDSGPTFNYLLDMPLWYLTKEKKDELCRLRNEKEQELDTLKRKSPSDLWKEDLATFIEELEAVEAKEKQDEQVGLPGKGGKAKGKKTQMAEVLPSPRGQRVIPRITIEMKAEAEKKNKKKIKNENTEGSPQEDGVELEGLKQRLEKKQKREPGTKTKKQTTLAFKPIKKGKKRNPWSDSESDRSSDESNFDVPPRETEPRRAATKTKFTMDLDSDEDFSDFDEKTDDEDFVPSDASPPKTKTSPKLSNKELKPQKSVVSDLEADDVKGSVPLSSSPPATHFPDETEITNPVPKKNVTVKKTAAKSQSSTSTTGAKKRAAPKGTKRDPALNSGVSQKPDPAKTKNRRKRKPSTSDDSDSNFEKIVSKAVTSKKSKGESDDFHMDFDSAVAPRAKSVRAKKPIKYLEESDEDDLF

Question: For `CC[C@@]1(O)C(=O)OCc2c1cc1n(c2=O)Cc2cc3ccccc3nc2-1` [CPT, camptothecin], which “DNA relaxation assay, agarose gel (5 and 10 μM)” value [1] is on record?
Answer: CPT (a control for topoisomerase I inhibition) and DOX (a control for topoisomerase II inhibition) at two different concentrations

Question: With `COc1cccc2c1C(=O)c1c(O)c3c(c(O)c1C2=O)C[C@@](O)(C(=O)CO)C[C@@H]3O[C@H]1C[C@H](N)[C@H](O)[C@H](C)O1` [DOX, doxorubicin] as the compound, how does the “DNA relaxation assay, agarose gel (5 and 10 μM)” value [2] read?
Answer: These showed no DNA migration, indicating complete inhibition of the respective topoisomerase enzymes.
